Measurements from US20250325552A1, “SUBSTITUTED THIADIAZOLYL DERIVATIVES AS DNA POLYMERASE THETA INHIBITORS” (IDEAYA Biosciences, Inc., priority 2020, published 2025).
pIC50: −log10 of the molar value.

molecular target: Polθ theta (1-899) (hPolQ) (Homo sapiens (Human), UniProt O75417); assay: Biological Assay 1: Polθ ATPase activity, NADH oxidation-coupled enzymatic assay (10 nM enzyme, 30 min); type: biochemical; settings: Polθ (1-899) 10 nM, 100 μM ATP, 300 nM dT50 ssDNA; Examples 1 to 268; read-out: ATPase NADH coupling:Standard Screening:hPolQ IC50
Sequence (O75417 1-899): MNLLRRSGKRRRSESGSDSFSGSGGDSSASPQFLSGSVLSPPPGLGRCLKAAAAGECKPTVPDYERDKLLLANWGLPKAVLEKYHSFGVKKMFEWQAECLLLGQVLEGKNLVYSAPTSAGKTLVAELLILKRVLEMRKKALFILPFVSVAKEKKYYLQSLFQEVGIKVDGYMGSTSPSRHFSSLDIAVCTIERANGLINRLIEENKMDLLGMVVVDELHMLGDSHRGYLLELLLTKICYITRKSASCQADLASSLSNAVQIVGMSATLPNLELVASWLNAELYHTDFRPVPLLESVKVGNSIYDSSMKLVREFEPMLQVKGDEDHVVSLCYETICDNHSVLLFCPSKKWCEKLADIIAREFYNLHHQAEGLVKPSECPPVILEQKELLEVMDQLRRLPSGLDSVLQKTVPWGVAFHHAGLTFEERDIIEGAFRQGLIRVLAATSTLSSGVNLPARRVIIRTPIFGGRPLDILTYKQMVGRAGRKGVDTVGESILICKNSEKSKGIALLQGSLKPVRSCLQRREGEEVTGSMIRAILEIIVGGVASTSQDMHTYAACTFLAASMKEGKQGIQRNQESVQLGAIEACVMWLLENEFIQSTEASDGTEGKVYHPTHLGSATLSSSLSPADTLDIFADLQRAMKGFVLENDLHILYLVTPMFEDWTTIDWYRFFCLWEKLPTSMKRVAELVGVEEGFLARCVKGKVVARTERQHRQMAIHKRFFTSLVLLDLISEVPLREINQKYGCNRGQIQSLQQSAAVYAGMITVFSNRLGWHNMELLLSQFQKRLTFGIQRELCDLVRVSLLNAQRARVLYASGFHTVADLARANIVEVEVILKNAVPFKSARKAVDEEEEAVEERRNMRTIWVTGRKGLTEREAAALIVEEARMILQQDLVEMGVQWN
Description: The ability of the compounds of Formula (I), (II), (III), (IV), or Table 1 (Examples 1 to Example 268) to inhibit ATPase activity of Polθ theta (1-899) was determined using the assay described below.
Polθ Theta ATPase activity was determined by measuring the rate of ATP turn over in a NADH oxidation-coupled enzymatic assay. 10-point dilution series of compounds were used in a 384 well format for the inhibition assays. Polθ theta (1-899) (10 nM) in assay buffer (20 mM Tris HCl (pH 7.80), 80 mM KCl, 10 mM MgCl2, 1 mM DTT, 0.01% BSA, 0.01% Tween, 5% glycerol) was transferred to the test wells (20 μL), except the low control wells (20 μL of assay buffer was added to the low control wells). The plate was then incubated at room temperature for 15 min. An equal volume (20 μL) of 100 μM ATP, 300 nM dT50 (single-stranded DNA (ssDNA) containing 50 thymine bases), 300 μM NADH, 6 mM PEP, 10 U/mL lactate dehydrogenase and U/mL pyruvate kinase in assay buffer was added to all the test wells. The plate was then centrifuged at 1000 rpm for 1 min. The reaction was monitored for 30 min by measuring absorbance (λ=340 nm) in a Tecan Spark multimode plate reader every minute. The high control (DMSO with enzyme) with low absorbance intensity represents no inhibition of ATPase reaction while the low control (DMSO with buffer) with high absorbance intensity represents full inhibition of ATPase activity. Slope of the reaction progress curves were used to calculate the rate of ATP hydrolysis. The rates were used to determine the percent inhibition using a four-parameter inhibition model to generate IC50, Hill slope and max inhibition.

pIC50	SMILES
≥ 6.70	COc1ccccc1-c1cc(C)ncc1C(=O)Nc1nnc(OCc2ccc(C3(CO)CC3)cn2)s1 [Example 7, N-(5-((5-(1-(hydroxymethyl)cyclopropyl)pyridin-2-yl)methoxy)-1,3,4-thiadiazol-2-yl)-4-(2-methoxyphenyl)-6-methylnicotinamide]
≥ 6.70	COc1cccc(F)c1-c1cnncc1C(=O)Nc1nnc(OCc2ccc(C(C)(C)O)cn2)s1 [Example 81, 5-(2-fluoro-6-methoxyphenyl)-N-(5-((5-(2-hydroxypropan-2-yl)pyridin-2-yl)methoxy)-1,3,4-thiadiazol-2-yl)pyridazine-4-carboxamide]
≥ 6.70	COc1cnc(Cl)cc1-c1cc(C)ncc1C(=O)Nc1nnc(OC[C@@H]2CCO2)s1 (single isomer, unassigned) [Example 169]
≥ 6.70	COc1cnc(C)c(F)c1-c1cc(C)ncc1C(=O)Nc1nnc(OCC23CCC(O)(CC2)C3)s1 [Example 217, 3′-fluoro-N-(5-((4-hydroxybicyclo(2.2.1)heptan-1-yl)methoxy)-1,3,4-thiadiazol-2-yl)-5′-methoxy-2′,6-dimethyl-(4,4′-bipyridine)-3-carboxamide]
≥ 6.70	COc1cnc(Cl)cc1-c1cc(C)ncc1C(=O)Nc1nnc(OCC2COC(C)(C)CO2)s1 (stereo not drawn) [Example 228, 2′-chloro-N-(5-((5,5-dimethyl-1,4-dioxan-2-yl)methoxy)-1,3,4-thiadiazol-2-yl)-5′-methoxy-6-methyl-(4,4′-bipyridine)-3-carboxamide]
≥ 6.70	COc1cnc(Cl)cc1-c1cc(C)ncc1C(=O)Nc1nnc(OC[C@@H]2COCCO2)s1 [Example 186, (S)—N-(5-((1,4-dioxan-2-yl)methoxy)-1,3,4-thiadiazol-2-yl)-2′-chloro-5′-methoxy-6-methyl-(4,4′-bipyridine)-3-carboxamide]
≥ 6.70	COc1ccc(Cl)cc1-c1cc(C)ncc1C(=O)Nc1nnc(OCc2ccc([S@](C)(=N)=O)cn2)s1 [Example 147, (R)-4-(5-chloro-2-methoxyphenyl)-6-methyl-N-(5-((5-(S-methylsulfonimidoyl)pyridin-2-yl)methoxy)-1,3,4-thiadiazol-2-yl)nicotinamide]
≥ 6.70	COc1cnc(Cl)cc1-c1cc(C)ncc1C(=O)Nc1nnc(OC[C@@H]2CO[C@@H](CO)CO2)s1 (racemic) [Example 238, rel-2′-chloro-N-(5-(((2s,5s)-5-(hydroxymethyl)-1,4-dioxan-2-yl)methoxy)-1,3,4-thiadiazol-2-yl)-5′-methoxy-6-methyl-(4,4′-bipyridine)-3-carboxamide]
≥ 6.70	COc1cnc(Cl)cc1-c1cc(C)ncc1C(=O)Nc1nnc(OCC2CC2(F)F)s1 (stereo not drawn) [Example 206, 2′-chloro-N-(5-((2,2-difluorocyclopropyl)methoxy)-1,3,4-thiadiazol-2-yl)-5′-methoxy-6-methyl-(4,4′-bipyridine)-3-carboxamide]
≥ 6.70	COc1cnc(Cl)cc1-c1cc(COC2CC2)ncc1C(=O)Nc1nnc(OC[C@H]2CC[C@H](O)CC2)s1 [Example 232, 2′-chloro-6-(cyclopropoxymethyl)-N-(5-(((1r,4r)-4-hydroxycyclohexyl)methoxy)-1,3,4-thiadiazol-2-yl)-5′-methoxy-(4,4′-bipyridine)-3-carboxamide]
≥ 6.70	COc1cccc(F)c1-c1cc(C)ncc1C(=O)Nc1nnc(OCc2ccc(C3CCO3)cn2)s1 (stereo not drawn) [Example 130, 4-(2-fluoro-6-methoxyphenyl)-6-methyl-N-(5-((5-(oxetan-2-yl)pyridin-2-yl)methoxy)-1,3,4-thiadiazol-2-yl)nicotinamide]
≥ 6.70	Cc1cc(-c2c(F)cccc2OC(F)F)c(C(=O)Nc2nnc(OCc3ccc(CO)cn3)s2)cn1 [Example 25, 4-(2-(difluoromethoxy)-6-fluorophenyl)-N-(5-((5-(hydroxymethyl)pyridin-2-yl)methoxy)-1,3,4-thiadiazol-2-yl)-6-methylnicotinamide]
≥ 6.70	COc1cnc(Cl)cc1-c1cc(C)ncc1C(=O)Nc1nnc(OCc2ccc3c(n2)CCOC3)s1 [Example 151, 2′-chloro-5′-methoxy-6-methyl-N-(5-(5H,7H,8H-pyrano(4,3-b)pyridin-2-ylmethoxy)-1,3,4-thiadiazol-2-yl)-(4,4′-bipyridine)-3-carboxamide]
≥ 6.70	COc1cccc(COc2nnc(NC(=O)c3cnc(C)cc3-c3c(F)cccc3OC)s2)n1 [Example 91, 4-(2-fluoro-6-methoxyphenyl)-N-(5-((6-methoxypyridin-2-yl)methoxy)-1,3,4-thiadiazol-2-yl)-6-methylpyridine-3-carboxamide]
≥ 6.70	COc1cnc(Cl)cc1-c1cc(C)ncc1C(=O)Nc1nnc(OCc2ccc([C@H](C)O)cn2)s1 [Example 68, (S)-2′-chloro-N-(5-((5-(1-hydroxyethyl)pyridin-2-yl)methoxy)-1,3,4-thiadiazol-2-yl)-5′-methoxy-6-methyl-(4,4′-bipyridine)-3-carboxamide]
≥ 6.70	COc1cnc(Cl)cc1-c1cc(C)ncc1C(=O)Nc1nnc(OC[C@H]2CCC[C@@H]2O)s1 (single isomer, unassigned) [Example 256, 2′-chloro-N-(5-((2-hydroxycyclopentyl)methoxy)-1,3,4-thiadiazol-2-yl)-5′-methoxy-6-methyl-(4,4′-bipyridine)-3-carboxamide]
≥ 6.70	COc1cccc(F)c1-c1cc(C)ncc1C(=O)Nc1nnc(OCc2ccc3c(n2)CCC[C@@H]3O)s1 [Example 116, 4-(2-fluoro-6-methoxyphenyl)-N-(5-(((S)-5-hydroxy-5,6,7,8-tetrahydroquinolin-2-yl)methoxy)-1,3,4-thiadiazol-2-yl)-6-methylnicotinamide]
≥ 6.70	COc1cnc(C)cc1-c1cc(C)ncc1C(=O)Nc1nnc(OC[C@H]2C[C@H](O)C2)s1 [Example 107, N-(5-(((1r,3r)-3-hydroxycyclobutyl)methoxy)-1,3,4-thiadiazol-2-yl)-5′-methoxy-2′,6-dimethyl-[4,4′-bipyridine]-3-carboxamide]
≥ 6.70	COc1cnc(Cl)c(F)c1-c1cc(C)ncc1C(=O)Nc1nnc(OCC2CCOC2)s1 (stereo in doubt) [Example 183, 2′-chloro-3′-fluoro-5′-methoxy-6-methyl-N-(5-(((R)-tetrahydrofuran-3-yl)methoxy)-1,3,4-thiadiazol-2-yl)-(4,4′-bipyridine)-3-carboxamide]
5.00 to 6.00	COc1ccccc1-c1cnccc1C(=O)Nc1nnc(OCCC2(C#N)CC2)s1 [Example 192, N-(5-(2-(1-cyanocyclopropyl)ethoxy)-1,3,4-thiadiazol-2-yl)-3-(2-methoxyphenyl)pyridine-4-carboxamide]
≥ 6.70	CCc1cc(-c2cc(C)ncc2C(=O)Nc2nnc(OCc3ccc(C(C)(C)O)cn3)s2)c(OC)cn1 [Example 106, 2′-ethyl-N-(5-((5-(2-hydroxypropan-2-yl)pyridin-2-yl)methoxy)-1,3,4-thiadiazol-2-yl)-5′-methoxy-6-methyl-[4,4′-bipyridine]-3-carboxamide]
≥ 6.70	COc1cnc(Cl)c(F)c1-c1cc(C)ncc1C(=O)Nc1nnc(OCC23CC(O)(C2)C3)s1 [Example 185, 2′-chloro-3′-fluoro-N-(5-((3-hydroxybicyclo(1.1.1)pentan-1-yl)methoxy)-1,3,4-thiadiazol-2-yl)-5′-methoxy-6-methyl-(4,4′-bipyridine)-3-carboxamide]
≥ 6.70	COc1cccc(F)c1-c1cc2cnc(C)n2cc1C(=O)Nc1nnc(OC[C@H]2CC[C@H](O)CC2)s1 [Example 195, 7-(2-fluoro-6-methoxyphenyl)-N-(5-(((1r,4r)-4-hydroxycyclohexyl)methoxy)-1,3,4-thiadiazol-2-yl)-3-methylimidazo(1,5-a)pyridine-6-carboxamide]
≥ 6.70	COc1cnc(Cl)cc1-c1cc(C)ncc1C(=O)Nc1nnc(OCC2CCOC2)s1 (stereo in doubt) [Example 171, (S)-2′-chloro-5′-methoxy-6-methyl-N-(5-((tetrahydrofuran-3-yl)methoxy)-1,3,4-thiadiazol-2-yl)-(4,4′-bipyridine)-3-carboxamide]
≥ 6.70	COc1ccc(Cl)cc1-c1cnncc1C(=O)Nc1nnc(OCC23CCC(F)(CC2)CC3)s1 [Example 142, 5-(5-chloro-2-methoxyphenyl)-N-(5-((4-fluorobicyclo(2.2.2)octan-1-yl)methoxy)-1,3,4-thiadiazol-2-yl)pyridazine-4-carboxamide]
≥ 6.70	COc1cccc(F)c1-c1cc(C)ncc1C(=O)Nc1nnc(OCc2ccc(C(C)O)cn2)s1 (racemic) [Example 22, 4-(2-fluoro-6-methoxyphenyl)-N-(5-((5-(1-hydroxyethyl)pyridin-2-yl)methoxy)-1,3,4-thiadiazol-2-yl)-6-methylnicotinamide]
≥ 6.70	COc1ccc(COc2nnc(NC(=O)c3cnc(C)cc3-c3c(F)cccc3OC)s2)nc1OC [Example 43, N-(5-((5,6-dimethoxypyridin-2-yl)methoxy)-1,3,4-thiadiazol-2-yl)-4-(2-fluoro-6-methoxyphenyl)-6-methylnicotinamide]
